Columns and labels:
[1] = target: T1, Human V2 Vasopressin Receptor (Homo sapiens, UniProt P30518); assay: Binding to Membranes of Mouse Fibroblast Cell Line (LV-2) Transfected with the cDNA Expressing the Human V2 Vasopressin Receptor; details: ** LV-2 cell membranes
T1 construct: expressed in transfected cells; host or cells: mouse fibroblast cell line LV-2
Experimental: (a) Membrane Preparation Flasks of 175 ml capacity, containing attached cells grown to confluence, are cleared of culture medium by aspiration. […] The content of all flasks is poured into a centrifuge tube and the cells pelleted at 300× g for 15 min. The Hank's based solution is aspirated off and the cells homogenized with a polytron at setting #6 for 10 sec in 10.0 mM Tris.HCl buffer, pH 7.4 containing 0.25M sucrose and 1.0 mM EDTA. The homogenate is centrifuged at 1500× g for 10 min to remove ghost membranes. The supernatant fluid is centrifuged at 100,000× g for 60 min to pellet the receptor protein. […] (b) Receptor Binding […] Non specific binding is assessed in the presence of 1.0 μM of unlabeled ligand, added in 20 μl volume. […] The radioactivity trapped on the filter disk by the ligand-receptor complex is assessed by liquid scintillation counting in a Packard LS Counter, with an efficiency of 65% for tritium. The data are analyzed for IC50 values by the LUNDON-2 program for competition (LUNDON SOFTWARE, Ohio).

oxytocin receptors = target: T2, oxytocin receptors (Rattus norvegicus, UniProt P70536); assay: Oxytocin Receptor Binding; parameters: species or system rat (female Sprague-Dawley); details: for IC50: 1.0 nM [3H]OT
T2 construct: The uteri are dissected out, cleaned of fat and connective tissues; from tissue; host or cells: uteri of DES-treated female Sprague-Dawley rats
T2 sequence (P70536 1-388): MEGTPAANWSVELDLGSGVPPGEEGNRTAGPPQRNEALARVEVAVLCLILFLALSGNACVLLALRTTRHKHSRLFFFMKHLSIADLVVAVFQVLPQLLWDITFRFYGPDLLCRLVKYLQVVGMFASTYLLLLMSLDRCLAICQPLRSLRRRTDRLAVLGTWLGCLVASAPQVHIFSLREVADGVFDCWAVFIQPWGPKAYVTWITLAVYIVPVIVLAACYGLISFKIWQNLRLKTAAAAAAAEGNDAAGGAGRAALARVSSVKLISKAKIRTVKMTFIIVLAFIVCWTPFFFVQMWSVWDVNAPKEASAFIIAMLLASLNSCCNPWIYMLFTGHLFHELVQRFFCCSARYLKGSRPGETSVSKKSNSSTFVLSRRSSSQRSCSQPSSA
Experimental: Oxytocin Receptor Binding
Female Sprague-Dawley rats weighing approximately 200-250 g are injected intramuscularly (i.m.) with 0.3 mg/kg of body weight of diethylstilbestrol (DES). The rats are sacrificed 18 hours later under pentobarbital anesthesia. The uteri are dissected out, cleaned of fat and connective tissues and rinsed in 50 ml of normal saline. The tissue pooled from six rats is homogenized in 50 ml of […] Tris.HCl, containing 0.5 mM dithiothreitol and 1.0 mM EDTA, adjusted to pH 7.4, using a polytron at setting 6 with three passes of 10 sec each. The homogenate is passed through two (2) layers of cheesecloth and the filtrate centrifuged at 1000× g for 10 min. The clear supernatant is removed and recentrifuged at 165,000× g for 30 min. The resulting pellet containing the oxytocin receptors is resuspended in 50.0 mM Tris.HCl containing 5.0 mM MgCl2 at pH 7.4, to give a protein concentration of 2.5 mg/ml of tissue suspension. This preparation is used in subsequent binding assays with [^3 H]Oxytocin.
Binding of 3,5-[^3 H]Oxytocin ([^3 H]OT) to its receptors is done in microtiter plates using [^3 H]OT, at various concentrations, in an assay buffer of 50.0 mM Tris.HCl, pH 7.4 and containing 5.0 mM MgCl2, and a mixture of protease inhibitors: BSA, 0.1 mg; aprotinin, 1.0 mg; 1,10-phenanthroline, 2.0 mg; […], 10.0 mg; and PMSF, 0.3 mg per 100 ml of buffer solution. Non-specific binding is determined in the presence of 1.0 uM unlabeled OT. The binding reaction is terminated after 60 min., at 22° C., by rapid filtration through glass fiber filters using a Brandel, cell harvester (Biomedical Research and Development Laboratories,Inc., Gaithersburg, Md.). Competition experiments are conducted at equilibrium using 1.0 nM [^3 H]OT and varying the concentration of the displacing agents. The concentrations of agent displacing 50% of [^3 H]OT at its sites (IC50) are calculated by a computer assisted LUNDON-2 program (LUNDON SOFTWARE INC., Ohio, USA).

Vasopressin V2 = Vasopressin V2 Antagonist Activity in Conscious Hydrated Rats; assay type: in vivo, rat; details: 10 mg/kg orally, AVP 0.4 μg/kg i.p.; for Osmolality: urine
Experimental: Two to four rats are used for each compound. One hour later, arginine vasopressin (AVP, antidiuretic hormore, ADH) dissolved in peanut oil is administered at 0.4 μg/kg intraperitoneally. Two rats in each test would not receive arginine vasopressin but only the vehicle (peanut oil) to serve as water-loading control. Twenty minutes later each rat is given 30 mL/kg of deionized water orally by gavage and is placed individually in a metabolic cage equipped with a funnel and a graduated glass cylinder to collect urine for four hours. Urine volume is measured and osmolality analyzed by use of a Fiske One-Ten osmometer (Fiske Assoc., Norwood, Mass., USA). Urinary sodium, potassium, and chloride are analyzed by use of ion-specific electrodes in a Beckman E3 (Electrolyte 3) Analyzer. In the following results, […] and decreased osmolality relative to AVP-control indicates activity.

[2] = target: T3, Vasopressin V1 receptor subtype in Human Platelet Membranes (Homo sapiens, UniProt P37288); assay: Binding to Vasopressin V1 receptor subtype in Human Platelet Membranes
T3 construct: tissue Hudson Valley Blood Services, Westchester Medical Center, Valhalla, N.Y; host or cells: human platelets (frozen platelet rich plasma)
Experimental: Radioligand Binding Experiments with Human Platelet Membranes
(a) Platelet Membrane Preparation
Frozen platelet rich plasma (PRP), (Platelet Source: Hudson Valley Blood Services, Westchester Medical Center, Valhalla, N.Y.) are thawed to room temperature. The tubes containing the PRP are centrifuged at 16,000×g for 10 min. at 4° C. and the supernatant fluid discarded. The platelets resuspended in an equal volume of 50.0 mM Tris.HCl, pH 7.5 containing 120 mM NaCl and 20.0 mM EDTA. The suspension is recentrifuged at 16,000× g for 10 min. This washing step is repeated one more time. The wash discarded and the lysed pellets homogenized in low ionic strength buffer of Tris.HCl, 5.0 mM, pH 7.5 containing 5.0 mM EDTA. The homogenate is centrifuged at 39,000× g for 10 min. The resulting pellet is resuspended in Tris.HCl buffer, 70.0 mM, pH 7.5 and recentrifuged at 39,000× g for 10 min. The final pellet is resuspended in 50.0 mM Tris.HCl buffer pH 7.4 containing 120 mM NaCl and 5.0 mM KCl to give 1.0-2.0 mg protein per ml of suspension.
(b) Binding to Vasopressin V1 receptor subtype in Human Platelet Membranes
In wells of a 96 well format microtiter plate, add 100 μl of 50.0 mM Tris.HCl buffer containing 0.2% BSA and a mixture of protease inhibitors (aprotinin, leupeptin etc.). Then add 20 μl of [^3 H]Ligand (Manning or Arg^8 Vasopressin), to give final concentrations ranging from 0.01 to 10.0 nM. Initiate the binding by adding 80.0 μl of platelet suspension (approx. 100 μg protein). Mix all reagents by pipetting the mixture up and down a few times. Non specific binding is measured in the presence of 1.0 µM of unlabeled ligand (Manning or Arg^8 Vasopressin). Let the mixture stand undisturbed at room temperature for ninety (90) min. Upon this time, rapidly filter off the incubate under vacuum suction over GF/B filters, using a Brandel Harvester. Determine the radioactivity caught on the filter disks by the addition of liquid scintillant and counting in a liquid scintillator.

T3 sequence (P37288 whole entry): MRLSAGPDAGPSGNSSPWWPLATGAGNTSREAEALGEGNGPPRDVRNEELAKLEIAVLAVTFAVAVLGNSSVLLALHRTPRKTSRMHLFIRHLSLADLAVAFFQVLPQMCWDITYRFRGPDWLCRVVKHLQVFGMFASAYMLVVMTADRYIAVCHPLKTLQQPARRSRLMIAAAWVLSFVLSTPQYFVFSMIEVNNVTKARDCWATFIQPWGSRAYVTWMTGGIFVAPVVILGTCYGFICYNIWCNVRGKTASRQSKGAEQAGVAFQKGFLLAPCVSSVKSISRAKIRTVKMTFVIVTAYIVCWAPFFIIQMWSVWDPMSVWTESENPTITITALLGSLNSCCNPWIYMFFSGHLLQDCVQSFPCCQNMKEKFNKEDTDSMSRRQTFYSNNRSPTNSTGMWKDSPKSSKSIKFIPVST
T1 sequence (P30518 whole entry): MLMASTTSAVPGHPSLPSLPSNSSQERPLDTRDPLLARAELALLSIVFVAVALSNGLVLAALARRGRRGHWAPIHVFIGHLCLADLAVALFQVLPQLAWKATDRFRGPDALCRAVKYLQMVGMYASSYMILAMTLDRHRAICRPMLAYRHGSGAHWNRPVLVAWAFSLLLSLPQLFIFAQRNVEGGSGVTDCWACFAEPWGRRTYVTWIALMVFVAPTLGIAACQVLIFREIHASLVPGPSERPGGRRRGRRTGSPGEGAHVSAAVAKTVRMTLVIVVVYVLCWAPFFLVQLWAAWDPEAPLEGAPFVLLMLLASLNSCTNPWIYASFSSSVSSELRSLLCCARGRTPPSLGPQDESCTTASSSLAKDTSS

| Compound | IC50 [1] [nM] | inhibition at 10 µM (oxytocin receptors) [%] | Urine Volume (Vasopressin V2) [ml/4 hrs] | Osmolality (Vasopressin V2) [mOsm/kg] | IC50 [2] [nM] | IC50 (oxytocin receptors) [nM] |
| --- | --- | --- | --- | --- | --- | --- |
| CCCc1ccc(-c2ccc(C(=O)N3Cc4cccn4Cc4ccccc43)cc2)cc1 [Example 21, 10,11-Dihydro-10-[(4'-propyl[1,1'-biphenyl]-4-yl)carbonyl]-5H-pyrrolo[2,1-c][1,4]benzodiazepine] | 58 | 68 | 4.5 | 1347 | 12 | – |
| Cc1ccccc1-c1ccc(C(=O)N2Cc3cccn3Cc3ccccc32)cc1 [Example 5, 10,11-Dihydro-10-[4-(2-methylphenyl)benzoyl]-5H-pyrrolo[2,1-c][1,4]benzodiazepine] | 2000 | – | 7.8 | 992 | 88 | – |
| O=C(c1ccc(-c2ccccc2[N+](=O)[O-])cc1)N1Cc2cccn2Cc2ccccc21 [Example 2, 10,11-Dihydro-10-[4-(2-nitrophenyl)benzoyl]-5H-pyrrolo[2,1-c][1,4]benzodiazepine] | 96 | 100 | 5.5 | 1257 | 64 | 49 ± 3 |
| CN(C)Cc1ccc2n1Cc1ccccc1N(C(=O)c1ccc(-c3cccs3)cc1)C2 [Example 6, 10,11-Dihydro-3-[(dimethylamino)methyl]-10-[4-(2-thienyl)benzoyl]-5H-pyrrolo[2,1-c][1,4]benzodiazepine] | 15000 | 100 | – | – | 63 | 330 |
| O=C(c1ccc(-c2cccs2)nc1)N1Cc2cccn2Cc2ccccc21 [Example 22] | 3600 | 98 | – | – | 960 | 480 |
| O=C(c1ccc(-c2cccs2)cc1)N1Cc2cccn2Cc2ccccc21 [drawing 73] | 510 | – | – | – | 13 | – |

— US5521173A, “Tricyclic benzazepine vasopressin antagonists” (American Home Products Corporation, priority 1995, dated 1996)
